Calls of active or inactive are those of the source. The rule behind the calls is not given here.
Tests used:
IMR-32 = assay: Antiproliferative activity against human IMR32 cells after 48 hrs by SRB assay; format: functional, cell-based; settings: IMR-32, 48 h
PANC-1 = assay: Antiproliferative activity against human PANC1 cells after 48 hrs by SRB assay; format: functional, cell-based; settings: PANC-1, 48 h
Plasmodium falciparum [1] = assay: Anti-plasmodial activity against chloroquine-sensitive Plasmodium falciparum 3D7 infected in human erythrocytes after 50 hrs by SYBR green dye based fluorescence assay; format: functional, cell-based; settings: 3D7, 50 h
Plasmodium berghei = assay: Anti-plasmodial activity against Plasmodium berghei ANKA infected in BALB/c mouse at 50 mg/kg, ip assessed as reduction in parasitemia administered once per day for 4 days by Giemsa staining based light microscopic assay; format: functional, organism-based
SiHa = assay: Antiproliferative activity against human SiHa cells after 48 hrs by SRB assay; format: functional, cell-based
Plasmodium falciparum [2] = assay: Anti-plasmodial activity against chloroquine-resistant Plasmodium falciparum Dd2 infected in human erythrocytes after 50 hrs by SYBR green dye based fluorescence assay; format: functional, cell-based; settings: Dd2, 50 h
MDA-MB-231 = assay: Antiproliferative activity against human MDA-MB-231 cells after 48 hrs by SRB assay; format: functional, cell-based; settings: MDA-MB-231, 48 h

SMILES | IC50 (IMR-32) | IC50 (PANC-1) | IC50 (Plasmodium falciparum [1]) | Activity (Plasmodium berghei) | IC50 (SiHa) | IC50 (Plasmodium falciparum [2]) | IC50 (MDA-MB-231)
COc1cc(-n2cc(CO/N=C3/[C@H]4O[C@]45[C@@]4(C)[C@H](CC[C@@]5(C)[C@@H]3c3ccoc3)[C@@]3(C)C=CC(=O)C(C)(C)[C@@H]3C[C@H]4OC(C)=O)nn2)c(OC)cc1Cl | > 100 µM | 35.1 µM | 1.5 µM | inactive | > 100 µM | 1.2 µM | > 100 µM
CC(=O)O[C@@H]1C[C@H]2C(C)(C)C(=O)C=C[C@]2(C)[C@H]2CC[C@@]3(C)[C@H](c4ccoc4)/C(=N\OCc4cn(CC(=O)Nc5ccccc5)nn4)[C@H]4O[C@]43[C@@]21C | > 100 µM | 25.4 µM | 13.8 µM | – | > 100 µM | 8.3 µM | > 100 µM
CC(=O)O[C@@H]1C[C@H]2C(C)(C)C(=O)C=C[C@]2(C)[C@H]2CC[C@@]3(C)[C@H](c4ccoc4)/C(=N\OCc4cn(-c5cc([N+](=O)[O-])ccc5Cl)nn4)[C@H]4O[C@]43[C@@]21C | > 100 µM | > 100 µM | 5.1 µM | – | > 100 µM | 3.8 µM | > 100 µM
CC(=O)O[C@@H]1C[C@H]2C(C)(C)C(=O)C=C[C@]2(C)[C@H]2CC[C@@]3(C)[C@H](c4ccoc4)/C(=N\O)[C@H]4O[C@]43[C@@]21C | > 100 µM | > 100 µM | 7.7 µM | – | > 100 µM | 2.2 µM | > 100 µM
CC(=O)O[C@@H]1C[C@H]2C(C)(C)C(=O)C=C[C@]2(C)[C@H]2CC[C@@]3(C)[C@H](c4ccoc4)/C(=N\OCc4cn(CC(=O)Nc5ccc(C)cc5)nn4)[C@H]4O[C@]43[C@@]21C | > 100 µM | > 100 µM | 31 µM | – | > 100 µM | 24 µM | > 100 µM
CC1(C)C(=O)C=C[C@]2(C)[C@H]3CC[C@@]4(C)[C@H](c5ccoc5)C(=O)[C@H]5O[C@]54[C@]3(C)C(=O)C[C@@H]12 | > 100 µM | > 100 µM | 12.9 µM | – | > 100 µM | 20 µM | 18 µM
C#CCO/N=C1/[C@H]2O[C@]23[C@@]2(C)[C@H](CC[C@@]3(C)[C@@H]1c1ccoc1)[C@@]1(C)C=CC(=O)C(C)(C)[C@@H]1C[C@H]2OC(C)=O | > 100 µM | > 100 µM | 7 µM | – | > 100 µM | 8.4 µM | > 100 µM
CCN1CCN(CC(=O)O[C@@H]2C[C@H]3C(C)(C)C(=O)C=C[C@]3(C)[C@H]3CC[C@@]4(C)[C@H](c5ccoc5)C(=O)[C@H]5O[C@]54[C@@]32C)CC1 | > 100 µM | > 100 µM | 8.6 µM | – | > 100 µM | 6 µM | > 100 µM
CC(=O)O[C@@H]1C[C@H]2C(C)(C)C(=O)C=C[C@]2(C)[C@H]2CC[C@@]3(C)[C@H](c4ccoc4)/C(=N\OCc4cn(CC(=O)Nc5ccc(F)c(Cl)c5)nn4)[C@H]4O[C@]43[C@@]21C | > 100 µM | > 100 µM | 32 µM | – | > 100 µM | 26 µM | > 100 µM
CC1(C)C(=O)C=C[C@]2(C)[C@H]3CC[C@@]4(C)[C@H](c5ccoc5)C(=O)[C@H]5O[C@]54[C@]3(C)[C@H](OC(=O)c3ccc(F)c(Br)c3)C[C@@H]12 | > 100 µM | > 100 µM | 6 µM | – | > 100 µM | 5.5 µM | > 100 µM
CC(=O)O[C@@H]1C[C@H]2C(C)(C)C(=O)C=C[C@]2(C)[C@H]2CC[C@@]3(C)[C@H](c4ccoc4)/C(=N\OCc4cn(-c5ccc(Cl)c([N+](=O)[O-])c5)nn4)[C@H]4O[C@]43[C@@]21C | > 100 µM | > 100 µM | 2.8 µM | – | > 100 µM | 1.3 µM | > 100 µM

From ChEMBL document CHEMBL4020729, “Synthesis and evaluation of anti-plasmodial and cytotoxic activities of epoxyazadiradione derivatives” (Eur J Med Chem, 2017)
